Experimental data from patent US9969964B2, “Disease-on-a-chip” (Purdue Research Foundation, priority 2013, dated 2018).

System: T4-2 tumor nodules
Assay: Apoptosis (TUNEL assay combined with DAPI scoring of pyknotic and karyorrhectic nuclei) of T4-2 tumor nodules treated with chemotherapeutic drugs
Type: cell-based
Conditions: for sensitivity of tumor nodules to drug (apoptosis): T4-2 nodules cocultured with S1 non-neoplastic breast epithelium on flat surfaces compared to monocultures of tumor nodules, FIG. 21 and 22; for sensitivity of cancer cells to drug (apoptosis): T4-2 nodules cocultured with S1 within semicircular hemichannels versus on flat surfaces
Excerpt: The findings described above prompted a test of the sensitivity of T4-2 tumor nodules to the chemotherapeutic drugs bleomycin (BLM, a radiomimetic agent used in the laboratory to study cellular responses to treatments that compromise genome integrity) and doxorubicin (DOX, an anthracycline used for the treatment of breast cancer). In this study, apoptosis was utilized as an endpoint to evaluate drug responses and was quantified using the TUNEL assay combined with visual scoring for pyknotic and karyorrhectic nuclei via DAPI staining (i.e. nuclear condensation and fragmentation, respectively). Three types of T4-2 nodules were compared: monocultures, cocultures with S1 luminal epithelium on the flat surface of the chip, and cocultures with S1 epithelium in the semicircular hemichannels.
This difference is intriguing and could not be explained by the proliferation status within nodules on flat surfaces and in hemichannels (27.5%±1.8% and 24.2%±2.5% Ki67-positive cells, respectively; P=0.292, unpaired t-test, n>10 nodule sections corresponding to >700 nuclei). […] It is possible that the microenvironment or the geometry in the hemichannels promotes modifications in the nuclear organization of tumor cells, which may influence cellular responses to cytotoxic drugs. This view is supported by the measured differences in nuclear circularity reported above, and is in agreement with early recommendations that nuclear morphometric descriptors, including roundness, should be investigated as possible predictors of response to therapy. The disease-on-a-chip system used for coculture with cancer cells provides a system with potential for improved understanding of cancer development and drug assessment in tissue context.

Compound	sensitivity of tumor nodules to drug (apoptosis)	sensitivity of cancer cells to drug (apoptosis)	toxicity to T4-2 nodules (drug concentration chosen to ease detection of increased sensitivity to genotoxic stress, should minimally affect cell survival)
COc1cccc2c1C(=O)c1c(O)c3c(c(O)c1C2=O)C[C@@](O)(C(=O)CO)C[C@@H]3O[C@H]1C[C@H](N)[C@H](O)[C@H](C)O1 [DOX, doxorubicin]	increased sensitivity	significantly less	
bleomycin [BLM]	increased sensitivity	significantly less	low toxicity
